Source: US7501425B1, “Bicyclic pyrimidines and bicyclic 3,4-dihydropyprimidines as inhibitors of cellular proliferation” (Warner Lambert Company, priority 1999, dated 2009)

Assays:
cdk4/D = cdk4/D (Homo sapiens, UniProt P11802); assay: Cyclin-Dependent Kinase 4 (cdk4) enzyme assay, 32P incorporation; type: biochemical; settings: 25 μM ATP, retinoblastoma substrate
Procedure: A typical assay, for instance, measures inhibitory activity against the cyclin D dependent kinase 4 enzyme (cdk4/D). […] The cdk4 assay was carried out as follows.
Cyclin-Dependent Kinase 4 (cdk4) Assay
Enzyme assays for IC50 determinations (Tables 1 and 2) and kinetic evaluation were performed in 96 well filter plates (Millipore MADVN6550). The total volume was 0.1 mL containing a final concentration of 20 mM TRIS (tris[hydroxymethyl]aminomethane), at pH 7.4, 50 mM NaCl, 1 mM dithiothreitol, 10 mM MgCl2, 25 μM ATP containing 0.25 μCi of [^32P]ATP, 20 ng of cdk4, 1 μg of retinoblastoma, and appropriate dilutions of a compound of the present invention. All components except the ATP were added to the wells, and the plate was placed on a plate mixer for 2 minutes. The reaction was started by adding [^32P]ATP and the plate was incubated at 25° C. for 15 minutes. The reaction was terminated by addition of 0.1 mL of 20% trichloroacetic acid (TCA). The plate was kept at 4° C. for at least 1 hour to allow the substrate to precipitate. The wells were then washed five times with 0.2 mL of 10% TCA and ^32p incorporation was determined with a beta plate counter (Wallac Inc., Gaithersburg. MD).

cdk2/cyclinE = cdk2/cyclinE (Homo sapiens, UniProt P24941); assay: Cyclin-dependent kinase assay cdk2/cyclinE; type: biochemical; settings: read-out: cdk2/E IC50
Procedure: (§1) Cyclin-Dependent Kinase Assays (cdk2/cyclinE, cdk2/cyclinA, cdc2/cyclinB)
(§2) All components except the ATP were added to the wells, and the plate was placed on a plate mixer for 2 minutes. The reaction was begun by addition of [^32P]ATP, and the plate was incubated at 25° C. for 15 minutes. The reaction was terminated by addition of 0.1 mL of 20% TCA. The plate was kept at 4° C. for at least 1 hour to allow the substrate to precipitate. The wells were then washed five times with 0.2 mL of 10% TCA and ^32P incorporation determined with a beta plate counter (Wallac Inc., Gaithersburg, Md.).

cdk2/cyclinA = cdk2/cyclinA (Homo sapiens, UniProt P24941); assay: Cyclin-dependent kinase assay cdk2/cyclinA; type: biochemical
Procedure: as §1, §2

cdc2/cyclinB = cdc2/cyclinB (Homo sapiens, UniProt P06493); assay: Cyclin-dependent kinase assay cdc2/cyclinB (cdk1/B); type: biochemical
cdc2/cyclinB, sequence (P06493 whole entry, species assumed): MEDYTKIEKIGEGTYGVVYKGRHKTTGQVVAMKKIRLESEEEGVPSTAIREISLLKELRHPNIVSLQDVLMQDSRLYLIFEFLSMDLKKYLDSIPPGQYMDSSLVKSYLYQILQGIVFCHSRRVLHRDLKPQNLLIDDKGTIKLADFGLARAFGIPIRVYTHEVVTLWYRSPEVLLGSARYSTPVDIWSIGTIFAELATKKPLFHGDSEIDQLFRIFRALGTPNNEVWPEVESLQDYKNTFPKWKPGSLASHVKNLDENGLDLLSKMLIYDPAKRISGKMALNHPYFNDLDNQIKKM
cdc2/cyclinB, sequence (P14635 whole entry partner, species assumed): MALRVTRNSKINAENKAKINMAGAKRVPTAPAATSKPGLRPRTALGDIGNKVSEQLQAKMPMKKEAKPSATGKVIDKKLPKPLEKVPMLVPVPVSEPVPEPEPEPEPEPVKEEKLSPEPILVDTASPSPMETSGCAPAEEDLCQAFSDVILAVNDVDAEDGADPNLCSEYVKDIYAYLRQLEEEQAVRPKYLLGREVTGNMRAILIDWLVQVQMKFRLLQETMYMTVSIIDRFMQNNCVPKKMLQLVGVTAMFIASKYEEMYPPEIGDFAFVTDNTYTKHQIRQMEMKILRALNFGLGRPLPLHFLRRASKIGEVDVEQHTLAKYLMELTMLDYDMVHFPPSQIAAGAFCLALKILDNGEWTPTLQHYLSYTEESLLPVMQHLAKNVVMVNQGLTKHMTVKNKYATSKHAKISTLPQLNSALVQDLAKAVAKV
Procedure: as §1, §2

[1] = molecular target: T1, FGF-1 (flg) receptor tyrosine kinase (Homo sapiens, UniProt P11362); assay: FGF receptor tyrosine kinase assay; type: biochemical; settings: intracellular tyrosine kinase domain, SF9 lysate
T1 construct: amplify a fragment of DNA that codes for the intracellular tyrosine kinase domain; made in house; host or cells: SF9 insect cells (baculovirus)
T1 sequence (P11362 478-767 limits assumed): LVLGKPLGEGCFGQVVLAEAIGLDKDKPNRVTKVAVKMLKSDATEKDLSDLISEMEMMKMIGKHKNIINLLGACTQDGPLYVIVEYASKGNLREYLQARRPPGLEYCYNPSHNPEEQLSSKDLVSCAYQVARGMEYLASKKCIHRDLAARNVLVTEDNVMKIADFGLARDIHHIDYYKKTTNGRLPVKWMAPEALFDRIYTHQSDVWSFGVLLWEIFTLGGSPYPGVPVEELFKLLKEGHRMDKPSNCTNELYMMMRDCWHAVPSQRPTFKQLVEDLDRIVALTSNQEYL
Procedure: (§3) The assays used to determine these activities were carried out as follows:
(§4) PDGF and FGF Receptor Tyrosine Kinase Assays
(§5) PCR primers were designed to amplify a fragment of DNA that codes for the intracellular tyrosine kinase domain. The fragment was inserted into a baculovirus vector, cotransfected with AcMNPV DNA, and the recombinant virus isolated. SF9 insect cells were infected with the virus to overexpress the protein, and the cell lysate was used for the assay. Assays were performed in 96-well plates (100 μL/incubation/well), and conditions were optimized to measure the incorporation of ^32P from γ^32P-ATP into a glutamate-tyrosine co-polymer substrate. Briefly, to each well was added 82.5 μL of incubation buffer containing 25 mM Hepes (pH 7.0), 150 mM NaCl, 0.1% Triton X-100, 0.2 mM PMSF, 0.2 mM Na3VO4, 10 mM MnCl2, and 750 μg/mL of Poly (4:1) glutamate-tyrosine followed by 2.5 μL of inhibitor and 5 μL of enzyme lysate (7.5 μg/μL FGF-TK or 6.0 μg/μL PDGF-TK) to initiate the reaction. Following a 10 minute incubation at 25° C., […] of γ^32P-ATP (0.4 μCi plus 50 μM ATP) was added to each well, and samples were incubated for an additional 10 minutes at 25° C. […] Nonspecific activity was defined as radioactivity retained on the filters following incubation of samples with buffer alone (no enzyme). […]

c-Src = molecular target: T2, c-Src (Homo sapiens, UniProt P12931); assay: c-Src kinase assay; type: biochemical; settings: 5 μM ATP, poly GluTyr substrate
T2 construct: made in house; host or cells: baculovirus infected insect cells
T2 sequence (P12931 whole entry, species assumed): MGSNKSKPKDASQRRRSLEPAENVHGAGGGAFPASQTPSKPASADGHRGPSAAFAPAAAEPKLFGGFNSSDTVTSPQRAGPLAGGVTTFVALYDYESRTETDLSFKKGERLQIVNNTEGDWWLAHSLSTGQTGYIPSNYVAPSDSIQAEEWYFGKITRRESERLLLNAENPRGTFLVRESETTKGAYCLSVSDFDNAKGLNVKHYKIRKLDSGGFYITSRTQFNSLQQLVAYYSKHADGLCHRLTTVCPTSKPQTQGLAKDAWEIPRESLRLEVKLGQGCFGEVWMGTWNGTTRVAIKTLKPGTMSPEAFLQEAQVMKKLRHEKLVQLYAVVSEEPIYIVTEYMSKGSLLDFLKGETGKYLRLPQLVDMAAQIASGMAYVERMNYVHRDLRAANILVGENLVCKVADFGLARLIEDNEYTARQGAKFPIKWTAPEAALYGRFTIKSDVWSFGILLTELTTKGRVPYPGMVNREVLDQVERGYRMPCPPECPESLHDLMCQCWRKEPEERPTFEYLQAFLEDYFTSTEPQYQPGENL
Procedure: Several of the invention compounds have been evaluated in a standard assay to measure their ability to inhibit cellular Src protein kinase (c-Src). […] The assay was carried out as follows:
c-Src kinase was purified from baculovirus infected insect cell lysates using an antipeptide monoclonal antibody directed against the N-terminal amino acids (amino acids 2-17) of c-Src. The antibody, covalently linked to 0.65 μm latex beads, was added to a suspension of insect cell lysis buffer comprised of 150 mM NaCl, 50 mM Tris pH 7.5, 1 mM DTT, 1% NP-40, 2 mM EGTA, 1 mM sodium vanadate, 1 mM PMSF, 1 μg/mL each of leupeptin, pepstatin, and aprotinin. Insect cell lysate containing c-Src protein was incubated with these beads for 3 to 4 hours at 4° C. with rotation. At the end of the lysate incubation, the beads were rinsed three times in lysis buffer, resuspended in lysis buffer containing 10% glycerol, and frozen. These latex beads were thawed, rinsed three times in assay buffer (40 mM Tris, pH 7.5, 5 mM […]) and suspended in the same buffer. In a Millipore 96-well plate with a 0.65 μm polyvinylidine membrane bottom were added the reaction components: 10 μL c-Src beads, 10 μL of 2.5 mg/mL poly GluTyr substrate, 5 μM ATP containing 0.2 μCi labeled ^32P-ATP, 5 μL DMSO containing inhibitors or as a solvent control, and buffer to make the final volume 125 μL. The reaction was started at room temperature by addition of the ATP and quenched 10 minutes later by the addition of 125 μL of 30% TCA, 0.1 M sodium pyrophosphate for 5 minutes on ice. The plate was then filtered and the wells washed with two […] aliquots of 15% TCA, 0.1 M pyrophosphate. The filters were then punched, counted in a liquid scintillation counter, and the data examined for inhibitory activity in comparison to a known inhibitor such as erbstatin. The method is also described in J. Med. Chem., 1994; 37:598-609. Tables 5 and 6 list c-Src inhibitory concentrations (IC50) for representative invention compounds.

[2] = molecular target: T3, PDGF-β receptor tyrosine kinase (Mus musculus, UniProt P05622); assay: PDGF receptor tyrosine kinase assay; type: biochemical; settings: intracellular tyrosine kinase domain, SF9 lysate
T3 construct: amplify a fragment of DNA that codes for the intracellular tyrosine kinase domain; made in house; host or cells: SF9 insect cells (baculovirus)
T3 sequence (P05622 599-961 limits assumed): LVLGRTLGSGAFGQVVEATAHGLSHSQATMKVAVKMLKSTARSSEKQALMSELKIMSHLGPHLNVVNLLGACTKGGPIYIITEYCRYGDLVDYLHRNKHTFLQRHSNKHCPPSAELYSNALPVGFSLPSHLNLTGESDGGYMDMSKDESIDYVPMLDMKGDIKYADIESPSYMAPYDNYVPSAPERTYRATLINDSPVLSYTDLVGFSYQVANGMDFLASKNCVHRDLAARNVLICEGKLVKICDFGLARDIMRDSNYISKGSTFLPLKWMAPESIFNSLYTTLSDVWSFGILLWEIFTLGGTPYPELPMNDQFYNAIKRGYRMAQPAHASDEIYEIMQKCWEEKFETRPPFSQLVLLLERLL
Procedure: as §3, §4, §5

cdk4/D, sequence (P11802 whole entry, species assumed): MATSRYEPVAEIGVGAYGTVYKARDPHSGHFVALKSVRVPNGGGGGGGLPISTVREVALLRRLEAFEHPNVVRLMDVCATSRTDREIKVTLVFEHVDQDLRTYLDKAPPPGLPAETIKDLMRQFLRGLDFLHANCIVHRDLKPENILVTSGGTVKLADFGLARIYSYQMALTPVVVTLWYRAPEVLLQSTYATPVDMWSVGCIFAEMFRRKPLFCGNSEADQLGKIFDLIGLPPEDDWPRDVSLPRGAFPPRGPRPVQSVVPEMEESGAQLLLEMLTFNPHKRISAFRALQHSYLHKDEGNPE
cdk4/D, sequence (P24385 whole entry partner, species assumed): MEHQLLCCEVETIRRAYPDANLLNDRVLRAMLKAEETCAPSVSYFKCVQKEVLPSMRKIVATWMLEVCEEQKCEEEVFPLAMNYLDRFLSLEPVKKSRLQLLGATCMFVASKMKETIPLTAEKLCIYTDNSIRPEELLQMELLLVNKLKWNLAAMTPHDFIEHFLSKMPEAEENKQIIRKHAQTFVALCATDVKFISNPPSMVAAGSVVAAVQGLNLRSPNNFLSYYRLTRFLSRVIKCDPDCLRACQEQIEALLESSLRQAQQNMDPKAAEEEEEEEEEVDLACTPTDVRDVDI

| Structure (SMILES) | IC50 (cdk4/D) [nM] | IC50 (cdk2/cyclinE) [nM] | IC50 (cdk2/cyclinA) [nM] | IC50 (cdc2/cyclinB) [nM] | IC50 [1] [nM] | IC50 (c-Src) [nM] | melting point | IC50 [2] [nM] |
| --- | --- | --- | --- | --- | --- | --- | --- | --- |
| CN1CCN(c2ccc(Nc3ncc4cnc(=O)n(C5CC6CCC5C6)c4n3)cc2)CC1 (stereo not drawn) [Example 44, 1-Bicyclo [2.2.1]hept-2-yl-7-[4-(4-methylpiperazin-1-yl)phenylamino]-pyrimido[4,5-d]pyrimidin-2(1H)-one, exo] | 18 | 1200 | 1030 | 7360 | 470 | 2300 | > 210 °C (dec.) | – |
| CN(C)C1CCN(c2ccc(Nc3ncc4c(n3)N(C3CCCC3)C(=O)NC4)cc2)CC1 [Example 17, 1-Cyclopentyl-7-{4-[4-(dimethylamino)piperidin-1-yl]phenylamino}-3,4-dihydro-pyrimido[4,5-d]pyrimidin-2(1H)-one] | 310 | 3550 | 1310 | 20200 | – | 370 | > 200 °C (dec.) | 320 |
| CC(C)n1c(=O)ncc2cnc(Nc3ccc(N4CCC(CCCN5CCOCC5)CC4)cc3)nc21 [Example 43, 1-Isopropyl-7-{4-[4-(3-(morpholin-4-yl)propyl)piperidin-1-yl]phenylamino}-pyrimido[4,5-d]pyrimidin-2(1H)-one] | 540 | 38000 | 7490 | > 40000 | 4930 | – | – | – |
| O=C1NCc2cnc(Nc3ccc(N4CCC(CCN5CCOCC5)CC4)cc3)nc2N1C1CCCC1 [Example 21] | 165 | 3000 | 1370 | 36100 | – | 1600 | – | 1100 |
